Assay results reported in EP1063992B1, “SULFURPENTA FLUOROPHENYL PYRAZOLES FOR CONTROLLING ECTOPARASITIC INFESTATIONS” (MERCK & CO., INC., priority 1998, dated 1999).
Where two headings read alike, the source gives them in different places.

How the values were obtained:
fleas = experiment: Activity against fleas in dogs (infestation with about 100 fleas, comb counts about 48 hours later); assay type: in vivo
Method: (§1) Beagle dogs of both sexes 21 to 31 months old and weighing from 10 to 16 kg were used. Groups of three dogs each were treated with the same active compound in different formulations as follows: • Group 1: topical formulation containing 10% w/v of active compound, 5% w/v polyvinylpyrrolidone 30 and ethanol qs to 100%v/v dosed at 5 mg/kg. • Group 2: long acting parenteral formulation containing 10% w/v of the active compound, 25% w/v of sucrose octaacetate, 1% w/v of propylene glycol octanoate decanoate and triacetin qs 100% v/v dosed subcutaneously at 10 mg/kg. • Group 3: long acting parenteral formulation containing 10% w/v active compound, 10% w/v poly(DL-lactide/glycolide)75/25, and qs 100% v/v 1:1 glycerol formal/triacetin dosed at 10 mg/kg subcutaneously. • Control group of three untreated dogs was included.
Treatments were administered once on Day 0. On Day 1 animals all animals were infested with approximately 100 fleas. Animals were combed and fleas counted and removed approximately 48 hours after infestation. Animals were infested on days 12 and 26, and combed and fleas counted and removed approximately 48 hours after infestation. Infestation/counting were repeated approximately monthly until efficacy fell below 80% [% efficacy = (1 - (mean flea count of treatment group ö mean flea count of control group) x 100).

[1] = Observation for emesis (vomition) in treated dogs; assay type: in vivo, Beagle dogs; details: 10 mg/kg subcutaneously
Method: as §1
(§2) Blood samples were collected from animals in treatment groups on Day 0 at 1, 2, 3 and 6 hours after treatment, on Day 1 at 24 hours after treatment, and whenever emesis was observed. Blood samples were also collected when flea counts were determined. Animals were observed hourly for 6 hours post treatment for emesis.

[2] = Plasma drug level in treated dogs; assay type: in vivo, Beagle dogs; details: dog, sc, group 2: sucrose octaacetate/triacetin formulation, 10 mg/kg subcutaneously, read-out: peak plasma levels
Method: as §1, §2

fleas and ticks = details: topical application; cited from earlier work
[3] = administered systemically, animals; cited from earlier work

Cmax [2]	SMILES	efficacy against fleas (fleas; group 1: topical formulation, 10% w/v active compound, 5 mg/kg once on Day 0, dogs, held for between 55 and 90 days)	efficacy against fleas (fleas; group 2: long acting parenteral formulation (sucrose octaacetate/triacetin), 10 mg/kg subcutaneously once, dogs, maintained for up to between 5 and 6 months)	duration of close to 100% efficacy against fleas (fleas; group 3: long acting parenteral formulation (poly(DL-lactide/glycolide)75/25, 1:1 glycerol formal/triacetin), 10 mg/kg subcutaneously once, dogs)	efficacy against fleas (fleas; group 3: long acting parenteral formulation (poly(DL-lactide/glycolide)75/25, 1:1 glycerol formal/triacetin), 10 mg/kg subcutaneously once, dogs, for >12 months)	vomition ([1]; group 2: sucrose octaacetate/triacetin formulation)	vomition ([1]; group 3: poly(DL-lactide/glycolide) formulation)	duration of efficacy (fleas and ticks)	vomition [3]
> 100 ng/mL	N#Cc1nn(-c2c(Cl)cc(S(F)(F)(F)(F)F)cc2Cl)c(N)c1SC(F)(F)F [active compound]	> 90%	> 90%	> 12 months	~100%	Vomition occurred	No vomition was observed		
	N#Cc1nn(-c2c(Cl)cc(C(F)(F)F)cc2Cl)c(N)c1[S+]([O-])C(F)(F)F (stereo not drawn) [Fipronil, fipronil]							not more than three months	known to cause vomition
